The supplement of paper PMC11208160

Assay: recombinant barcode read abundance after kanamycin selection (control-corrected) (log10(CPM+1)); higher = more efficient recombination; sequences stand for … in AGTGCAGAGAAAATCGGCCAGTTTTCTCTGCCTGCAGTCCGCATGCCGT…AGATTTATGCAGCGGACTGCCTTTCTCCCAAAGTGATAAACCGGACAGTATCATGGACCGGTTTTCCCGGTAATCCGTATTTGCAAGGTTGGTTTCACT; site = the 11-nt target
In short: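 Targets were screened in pooled form in E. coli against IS621 bridge RNA target-binding loops. Recombination efficiency is based on barcode counts at recombinant junctions in counts per million, averaged and corrected for the control. Numbers are shown as log10(CPM+1), with duplicate plates on chloramphenicol/ampicillin LB agar (control) or chloramphenicol/ampicillin/kanamycin with 0.1 mM IPTG.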
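Note: IS621 recombinase and bridge RNA in Escherichia coli cells.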

Row | Sequence | recombinant barcode read abundance (log10)
1 | TAAAGAGCTTGGGTTCTAACCTGTTGCGG (site TATAGAGCTCC) | 0.236
2 | TAACCCACTTGGGTTCTAACCTGTTGCCT (site TAACCCACTAG) | 1.1
3 | TAACCCACTTGGGTTCTAACCTGTTGCCT (site TTACGCACTAG) | 0.334
4 | TAACCTACTTGGGTTCTAACCTGTTGCAT (site TAACATACTAT) | 0.0358
5 | TAACCTACTTGGGTTCTAACCTGTTGCAT (site TAACCTACTAT) | 0.802
6 | TAACCTACTTGGGTTCTAACCTGTTGCAT (site TAACGTACTAT) | 0.169
7 | TAACCTACTTGGGTTCTAACCTGTTGCAT (site TAACTTACTAT) | 0.0519
8 | TAACGATCTTGGGTTCTAACCTGTTGCAT (site TAACGATCTAT) | 0.497
9 | TAACGATCTTGGGTTCTAACCTGTTGCAT (site TAACGGTCTAA) | 0.0405
10 | TAACGGTCTTGGGTTCTAACCTGTTGCTT (site TAACGATCTAT) | 0.44
11 | TAACGGTCTTGGGTTCTAACCTGTTGCTT (site TAACGGTCTAA) | 1.09
12 | TAACGTACTTGGGTTCTAACCTGTTGCGG (site TAACGTACTCC) | 1.41
13 | TAACGTACTTGGGTTCTAACCTGTTGCGG (site TAACGTCCTAC) | 0.113
14 | TAACTCTCTTGGGTTCTAACCTGTTGCCT (site TAACTCTCTAG) | 1.05
15 | TAACTCTCTTGGGTTCTAACCTGTTGCCT (site TCACTCTCTAG) | 0.0372
16 | TAACTCTCTTGGGTTCTAACCTGTTGCCT (site TGACTCTCTAG) | 0.0157
17 | TAACTCTCTTGGGTTCTAACCTGTTGCCT (site TTACTCTCTAG) | 0.145
18 | TAACTGTCTTGGGTTCTAACCTGTTGCTT (site CCGTCTACTTG) | 0.121
19 | TAACTGTCTTGGGTTCTAACCTGTTGCTT (site TAACTGTCTAA) | 1.74
20 | TAACTTACTTGGGTTCTAACCTGTTGCCT (site TAACTTACTAG) | 0.185
21 | TAACTTACTTGGGTTCTAACCTGTTGCCT (site TAGCTTACTCG) | 0.0408
22 | TAAGCCTCTTGGGTTCTAACCTGTTGCTG (site TAAGCCTCTCA) | 2.54
23 | TAAGCCTCTTGGGTTCTAACCTGTTGCTG (site TAAGCTACTCA) | 0
24 | TAAGGTCCTTGGGTTCTAACCTGTTGCTA (site GGAGGTCCTTA) | 0.0326
25 | TAAGGTCCTTGGGTTCTAACCTGTTGCTA (site TAAGGTCCTTA) | 1.81
26 | TAATCGGCTTGGGTTCTAACCTGTTGCCT (site TAATCGACTAG) | 0.0571

Row | Sequence | recombinant barcode read abundance (log10)
27 | TAATCGGCTTGGGTTCTAACCTGTTGCCT (site TAATCGCCTAG) | 0.0352
28 | TAATCGGCTTGGGTTCTAACCTGTTGCCT (site TAATCGGCTAG) | 0.453
29 | TAATCGGCTTGGGTTCTAACCTGTTGCCT (site TAATCGTCTAG) | 0.111
30 | TAATCGTCTTGGGTTCTAACCTGTTGCCT (site TAATCGACTAG) | 0.0844
31 | TAATCGTCTTGGGTTCTAACCTGTTGCCT (site TAATCGCCTAG) | 0.0275
32 | TAATCGTCTTGGGTTCTAACCTGTTGCCT (site TAATCGGCTAG) | 0.0826
33 | TAATCGTCTTGGGTTCTAACCTGTTGCCT (site TAATCGTCTAG) | 1.84
34 | TAATGATCTTGGGTTCTAACCTGTTGCCT (site TAATGATCTAG) | 0.635
35 | TAATGATCTTGGGTTCTAACCTGTTGCCT (site TACTGATCTAG) | 0.0744
36 | TAATGATCTTGGGTTCTAACCTGTTGCCT (site TAGTGATCTAG) | 0.15
37 | TAATGATCTTGGGTTCTAACCTGTTGCCT (site TATTGATCTAG) | 0.155
38 | TAATGCCCTTGGGTTCTAACCTGTTGCCT (site TAATGCCCTAG) | 0.634
39 | TAATGCCCTTGGGTTCTAACCTGTTGCCT (site TATTGCCCTAG) | 0.13
40 | TAATGTTCTTGGGTTCTAACCTGTTGCAT (site TAATGGTCTAT) | 0.0924
41 | TAATGTTCTTGGGTTCTAACCTGTTGCAT (site TAATGTTCTAT) | 1.14
42 | TAATTGTCTTGGGTTCTAACCTGTTGCGT (site CAATTGTCTAC) | 0.725
43 | TAATTGTCTTGGGTTCTAACCTGTTGCGT (site TAATTGTCTAC) | 2.45
44 | TAATTTGCTTGGGTTCTAACCTGTTGCCT (site CGCGAGTCTCA) | 0.215
45 | TAATTTGCTTGGGTTCTAACCTGTTGCCT (site TAATTTGCTAG) | 0.182
46 | TACAAGCCTTGGGTTCTAACCTGTTGCGG (site TACAAGCCTCC) | 1.91
47 | TACAAGCCTTGGGTTCTAACCTGTTGCGG (site TACAAGTCTCT) | 0.051
48 | TACAAGTCTTGGGTTCTAACCTGTTGCAG (site TACAAGCCTCC) | 0.11
49 | TACAAGTCTTGGGTTCTAACCTGTTGCAG (site TACAAGTCTCT) | 1.47
50 | TACACTACTTGGGTTCTAACCTGTTGCAT (site TACACTACTAT) | 0.131
51 | TACACTACTTGGGTTCTAACCTGTTGCAT (site TACCCTACTAT) | 0.134
52 | TACAGACCTTGGGTTCTAACCTGTTGCAG (site ACGGAGTCTTA) | 0.128

Row | Sequence | recombinant barcode read abundance (log10)
53 | TACAGACCTTGGGTTCTAACCTGTTGCAG (site TACAGACCTCT) | 1.28
54 | TACAGTCCTTGGGTTCTAACCTGTTGCCT (site TACAGTCCTAG) | 1.06
55 | TACAGTCCTTGGGTTCTAACCTGTTGCCT (site TGCACTCCTAG) | 0.276
56 | TACCACTCTTGGGTTCTAACCTGTTGCCT (site AACCACTCTAG) | 0.335
57 | TACCACTCTTGGGTTCTAACCTGTTGCCT (site CACCACTCTAG) | 0.887
58 | TACCACTCTTGGGTTCTAACCTGTTGCCT (site GACCACTCTAG) | 0.13
59 | TACCACTCTTGGGTTCTAACCTGTTGCCT (site TACCACTCTAG) | 2.24
60 | TACCAGTCTTGGGTTCTAACCTGTTGCTT (site TACCAGTCTAA) | 1.74
61 | TACCAGTCTTGGGTTCTAACCTGTTGCTT (site TACCCGTCTAA) | 0.0102
62 | TACCAGTCTTGGGTTCTAACCTGTTGCTT (site TACCGGTCTAA) | 0.293
63 | TACCAGTCTTGGGTTCTAACCTGTTGCTT (site TACCTGTCTAA) | 0.111
64 | TACCCGCCTTGGGTTCTAACCTGTTGCTA (site TACCCGCCTTA) | 0.59
65 | TACCCGCCTTGGGTTCTAACCTGTTGCTA (site TACCCTACTTA) | 0.066
66 | TACCCGTCTTGGGTTCTAACCTGTTGCTT (site TACCAGTCTAA) | 0
67 | TACCCGTCTTGGGTTCTAACCTGTTGCTT (site TACCCGTCTAA) | 0.399
68 | TACCCGTCTTGGGTTCTAACCTGTTGCTT (site TACCGGTCTAA) | 0.168
69 | TACCCGTCTTGGGTTCTAACCTGTTGCTT (site TACCTGTCTAA) | 0.0134
70 | TACCGGCCTTGGGTTCTAACCTGTTGCTT (site TACCGGACTAC) | 0.0691
71 | TACCGGCCTTGGGTTCTAACCTGTTGCTT (site TACCGGCCTAA) | 0.444
72 | TACCTACCTTGGGTTCTAACCTGTTGCGA (site ATAACTACTAA) | 0.0536
73 | TACCTACCTTGGGTTCTAACCTGTTGCGA (site TACCTACCTTC) | 1.92
74 | TACCTATCTTGGGTTCTAACCTGTTGCGT (site TACCTAGCTAC) | 0.0617
75 | TACCTATCTTGGGTTCTAACCTGTTGCGT (site TACCTATCTAC) | 1.83
76 | TACGAACCTTGGGTTCTAACCTGTTGCGT (site TACGAACCTAC) | 2.94
77 | TACGAACCTTGGGTTCTAACCTGTTGCGT (site TAGGAGCCTAC) | 0.335
